“Also recorded” adds a separate entry of the source.
How the values were obtained:
Streptomyces [1] = conditions: cited from earlier work
Source text: Therefore, we hypothesized that Sv may catabolize those exogenous CLPs and use them as nutritional sources. […] (Fig. 2E and F). Extraction of the me ...

[2] = rhizosphere extracts (agar near tomato roots co-inoculated with Bv and Sv, Hoagland solid medium); conditions: Streptomyces venezuelae ATCC 10712 / Bacillus velezensis GA1-GFP on tomato (Solanum lycopersicum var. Moneymaker), 22°C, up to 7 days
[3] = Sv cell-free supernatant (CFS); conditions: Streptomyces venezuelae ATCC 10712, 30°C, up to 24 h; time course up to 48 h
Streptomyces [4] = conditions: cited from earlier work
[5] = confrontation zone between B. velezensis GA1 and S. venezuelae ATCC 10712 on REM solid medium (agar extract); conditions: Streptomyces venezuelae ATCC 10712 / Bacillus velezensis GA1, 26°C, up to 3 days
[6] = Sv cultures grown on gelified GA1 ΔbaeJ-mlnA-dfnA CFS; conditions: Streptomyces venezuelae, 28°C, up to 3 days
[7] = tested on: S. venezuelae supernatant (secreted enzymes); assay: In vitro degradation of CLPs by S. venezuelae cell-free supernatant; assay type: in vitro ADME, Streptomyces venezuelae ATCC 10712; conditions: shaking 180 rpm; for degradation of Pseudomonas CLPs by Sv CFS: Pseudomonas CFS (CAA medium) supplemented with 4% (vol/vol) Sv CFS, 24 h at 30°C, UPLC-MS and MS/MS, degraded to different degrees
Description: S. venezuelae cultures were performed on ISP2 medium at 28°C (yeast extract 4 g/L, malt extract 10 g/L, glucose 4 g/L, agar 20 g/L; pH 7.3). On 12 × 12 cm Petri square plates, three stripes (1 × 12 cm) of spores were inoculated with a cotton swab [40 µL of spores suspension (10^7 spores/mL) each], spaced by 3 cm each. The plates were left for 7 days of incubation. Next, the agar media was recovered and placed in Falcon tubes at −20°C for 24 h. Then, the agar media were defrosted at room temperature and centrifuged (8,000 rpm for 20 min). Finally, the supernatant leaked from the agar was collected, filtered sterilized (0.22-µm pore size filters) and stored at −20°C until further use. The heat-treated Sv supernatant was generated by incubating an aliquot of the cell-free supernatant of Sv for 10 min at 98°C. The supernatant was then filtered (0.22-µm pore size filters) and stored at −20°C until further use.
[…] Then the solutions were incubated for 24 h at 30°C with continuous shaking (180 rpm). Next, the solution were centrifuged (1 min at 10,000 rpm), filtered (0.22-µm pore size filters), and analyzed by UPLC-MS.
The degradation assays of Pseudomonas CLPs were performed using CFS generated as described above. They were supplemented by 4% (vol/vol) of S. venezuelae CFS prepared as described previously. Next, the solutions were incubated for 24 h at 30°C with continuous shaking (180 rpm). Then, the solution were centrifuged (1 min at 10,000 rpm), filtered (0.22-µm pore size filters), and analyzed by UPLC-MS.
For the CLP degradation kinetic experiments, surfactin, iturin, and fengycin solutions supplemented with S. venezuelae supernatant were prepared following the same protocol. Twenty microliters of solution was sampled at each time point and directly mixed with 80 µL of acetonitrile to stop enzymatic degradation. Finally, they were stored at −20°C until analysis by UPLC-MS.
All UPLC-MS analyses were performed using an Agilent 1290 Infinity II coupled with a diode array detector and a mass detector (Jet Stream ESI-Q-TOF 6530) in positive mode with the parameters set up as follows: capillary voltage of 3.5 kV, nebulizer pressure of 35 lb/in^2, drying gas of 8 L/min, drying gas temperature of 300°C, flow rate of sheath gas of 11 L/min, sheath gas temperature of 350°C, fragmentor voltage of 175 V, skimmer voltage of 65 V, and octopole radiofrequency of 750 V. Accurate mass spectra were recorded in the m/z range of 300–1,700. For untargeted MS/MS, we used the same MS1 parameters as described. We added MS2 untargeted acquisition mode with the parameters as follows: MS/MS range 50–1,700 m/z; MS/MS scan rate 3 spectra/s; isolation width MS/MS medium (approx. 4 AMU), Decision Engine Native; fixed collision energies of 25 and 40 V for surfactin, 50 V for iturin, and 60 V for fengycin experiments; precursor selection: three for the surfactin experiment, four for the iturin and fengycin experiments, threshold 1,500 (Abs), isotope model common, active exclusion after two spectra and release after 0.5 min, sorting the precursors by charge state then abundance (charge state preference 1). For targeted MS/MS, we used the same MS1 parameters MS/MS range of 50–1,700 m/z or 50–3,200 (when required for Pseudomonas CLPs with mass >1,700 Da), MS/MS scan rate 3 spectra/s, isolation width MS/MS narrow (approx. 1.3 amu), and fixed collision energies 20, 40, and 60V. In all experiments, a C18 Acquity UPLC ethylene bridged hybrid column (2.1 mm × 50 mm × 1.7 µm; Waters Corporation, Milford, MA, USA) was used at a flow rate of 0.6 mL/min and a temperature of 40°C. The injection volume was 20 µL, and the diode array detector scanned a wavelength spectrum between 190 and 600 nm. Unless otherwise mentioned, a gradient of acidified water (0.1% formic acid) (solvent A) and of acidified acetonitrile (0.1% formic acid) (solvent B) was used as mobile phase with a constant flow rate of 0.6 mL/min, starting at 10% B and rising to 100% B in 20 min. […]

[8] = tested on: Streptomyces venezuelae ATCC 10712; assay: Confrontation assay B. velezensis GA1 / S. venezuelae on REM plate, UPLC-MS metabolite profiling of the agar; conditions: gelified REM, 3 days at 26°C
Description: Confrontation assays were performed on square Petri dishes (12 × 12 cm) with 40 mL of REM solid medium at 26°C (REM supplemented with 14 g/L of agar).
S. venezuelae ATCC 10712 was inoculated as stripes (1 × 12 cm) in the middle of the plate with 40 µL of spore suspension (10^7 spores/mL) and spread with a cotton swab. Next, B. velezensis GA1 cells were collected from fresh precultures as described and adjusted to OD600 nm 0.1. Then, 5 µL of B. velezensis GA1 suspension was spotted at 1 cm of the Streptomyces line. Control plates were done following the same procedure without the inoculation of either Bacillus or Streptomyces. Plates were then incubated for 3 days at 26°C in the dark. Pictures of the plates were then captured using a CoolPix camera (NIKKOR ×60 wide optical zoom extra-low dispersion vibration reduction 4.3–258.0 mm 1:33 to 6.5).
The extraction of the metabolites from the agar was performed as follows. For the confrontation experiment, we precisely sampled the area of agar (2 × 1 cm) near the colony of Bacillus or Streptomyces (the confrontation zone is 1 cm wide) with standardized plugs. For the in planta, we sampled the agar area (1 × 1 cm) near the tomato roots. In both cases, the agar samples were transferred to Eppendorf tubes and placed for 24 h at −20°C. Then, the agar was thawed at room temperature and centrifuged for 10 min at 13,000 rpm. The supernatants were then collected and filtered (0.22-µm pore size filters) before UPLC-MS analysis.
All UPLC-MS analyses were performed using an Agilent 1290 Infinity II coupled with a diode array detector and a mass detector (Jet Stream ESI-Q-TOF 6530) in positive mode with the parameters set up as follows: capillary voltage of 3.5 kV, nebulizer pressure of 35 lb/in^2, drying gas of 8 L/min, drying gas temperature of 300°C, flow rate of sheath gas of 11 L/min, sheath gas temperature of 350°C, fragmentor voltage of 175 V, skimmer voltage of 65 V, and octopole radiofrequency of 750 V. Accurate mass spectra were recorded in the m/z range of 300–1,700. For untargeted MS/MS, we used the same MS1 parameters as described. We added MS2 untargeted acquisition mode with the parameters as follows: MS/MS range 50–1,700 m/z; MS/MS scan rate 3 spectra/s; isolation width MS/MS medium (approx. 4 AMU), Decision Engine Native; fixed collision energies of 25 and 40 V for surfactin, 50 V for iturin, and 60 V for fengycin experiments; precursor selection: three for the surfactin experiment, four for the iturin and fengycin experiments, threshold 1,500 (Abs), isotope model common, active exclusion after two spectra and release after 0.5 min, sorting the precursors by charge state then abundance (charge state preference 1). For targeted MS/MS, we used the same MS1 parameters MS/MS range of 50–1,700 m/z or 50–3,200 (when required for Pseudomonas CLPs with mass >1,700 Da), MS/MS scan rate 3 spectra/s, isolation width MS/MS narrow (approx. 1.3 amu), and fixed collision energies 20, 40, and 60V. In all experiments, a C18 Acquity UPLC ethylene bridged hybrid column (2.1 mm × 50 mm × 1.7 µm; Waters Corporation, Milford, MA, USA) was used at a flow rate of 0.6 mL/min and a temperature of 40°C. The injection volume was 20 µL, and the diode array detector scanned a wavelength spectrum between 190 and 600 nm. Unless otherwise mentioned, a gradient of acidified water (0.1% formic acid) (solvent A) and of acidified acetonitrile (0.1% formic acid) (solvent B) was used as mobile phase with a constant flow rate of 0.6 mL/min, starting at 10% B and rising to 100% B in 20 min. Solvent B was kept at 100% for 4 min before going back to the initial ratio. MassHunter Workstation (version 10.0) and ChemStation software were used for data collection and analysis. For untargeted analysis of iturin and fengycin degradation products, we used the same solvent and flow rate, starting at 10% B to 20% in 2 min, then rising to 50% B at 14 min and 100% B at 25 min, followed by 100% B and 5 at 10% B at 6 min.

C/C(=C/C=C/C=C/C(C)C(=O)O)NC(=O)CC(O)\C(C)=C/C=C\C=C(C)\C=C\C=C/C=C/CNC(=O)C(O)CC(C)C (centres unmarked) [bacillaene]
toxicity toward Streptomyces (Streptomyces [1]): toxicity

Fa Glu Leu Leu Val Asp Leu Leu
fragment found [2]: linear surfactins; also recorded: ELLVDLL | cleaved bond [3]: Fa-E and E-L and L-L and L-V | fragment found [3]: Linear surfactin, first_seen and FaEL | fragment found (Streptomyces [4]): linear surfactin | cleaved bond [5]: Fa-E | fragment found [5]: Linear surfactin | fragment found [6]: Linear surfactin; also recorded: ELLVDLL; also recorded: LLVDLL

VSLVVQLVDhbTIHseDabK (lariat or depsi) [sessilin, Pseudomonas cyclic lipopeptide, tested in Pseudomonas cell-free supernatant]
degradation of Pseudomonas CLPs by Sv CFS [7]: degraded

difficidin
toxicity toward Streptomyces (Streptomyces [1]): toxicity

fengycin
shorter CLP fragment detected in the confrontation zone but not in Bv monoculture ([8]; UPLC-MS, MS/MS): loss of the terminal isoleucine | abundance of the CLP in the confrontation zone compared with monocultures ([8]; agar extract of confrontation zone, UPLC-Q-TOF-MS peak areas, three biological replicates): decrease in the abundance | degradation of pure Bacillus CLPs by Sv CFS ([7]; pure CLPs (100 µM) incubated 24 h at 30°C with 4% (vol/vol) Sv CFS (grown on ISP2, 0.22-µm filtered), UPLC-MS/MS with feature-based molecular networking): degrades

macrolactin
toxicity toward Streptomyces (Streptomyces [1]): toxicity

orfamide
degradation of Pseudomonas CLPs by Sv CFS [7]: degraded

putisolvin
degradation of Pseudomonas CLPs by Sv CFS [7]: degraded

xantholisin
degradation of Pseudomonas CLPs by Sv CFS [7]: degraded

Reference: paper PMC10783051 (Microbiology Spectrum, 2023)
